Source: patent publication US20250057928A1, “VACCINE COMPOSITION FOR INDUCING ANTI-IL-23 ANTIBODY” (OSAKA UNIVERSITY, priority 2021, published 2025)
Where no end group is shown, it is not given here.

Columns and labels:
rmIL-23 = test: Binding of monkey antiserum to rmIL-23, ELISA; design: species or system mouse; conditions: monkey antiserum 6 weeks after the initial administration; second statement of b202, FIG. 7(b) covers rhIL-23 and rmIL-23
Experimental: FIG. 7(a) is a graph showing the antibody titer (GMT) of serum collected over time from Macaca fascicularis administered with AJP001 conjugated peptide (SEQ ID NO: 6). FIG. 7(b) is a graph showing the binding ability to rhIL-23 and rmIL-23 of serum collected from the Macaca fascicularis administered with AJP001 conjugated peptide (SEQ ID NO: 6) at 6 weeks after the first administration. FIG. 7(c) is a graph showing the evaluation of neutralization activity of IgG derived from Macaca fascicularis administered with AJP001 conjugated peptide (SEQ ID NO: 6). FIG. 7(d) is a graph showing the results of epitope mapping of anti-IL-23 antibody induced by AJP001 conjugated peptide (SEQ ID NO: 6).
AJP001 conjugated peptide (SEQ ID NO: 6) was dissolved in physiological saline and subcutaneously administered to Macaca fascicularis (female, […], N=4) at 5 mg/body 3 times at two-week intervals. Blood was collected every two weeks from the first day of administration until week 16, and the antibody titer (GMT) and binding to IL-23 of the serum at each time point were measured by the ELISA method (same method as in Example 1; the secondary antibody used was Anti-Monkey IgG (Abcam)). In FIG. 7, “*” means P<0.05.

epitope peptide = test: Antibody titer (GMT) of serum of Macaca fascicularis, ELISA; type: in vivo; conditions: 5 mg/body subcutaneous 3 times at two-week intervals, blood every two weeks until week 16
Experimental: AJP001 conjugated peptide having one of the B cell epitope sequences of SEQ ID NOs: 1-5 was dissolved in physiological saline and intradermally administered twice to BALB/c mice (female, 6-week-old, N=5-6) at 0.5 mg/body at 2-week intervals. Blood was collected before administration and 5 weeks after the initial administration, and the antibody titer against each AJP001 conjugated peptide and the binding ability to recombinant mouse IL-23 protein (rmIL-23) were measured by the ELISA method. […] After washing the wells with PBS-T, TMB solution (SIGMA) was added, the wells were allowed to stand for 30 min in the dark, the reaction was stopped by adding 0.5M H2SO4, and the absorbance at 450 nm was measured using a plate reader. The serum dilution rate that gave 1/2 (OD=1.75) of the maximum absorbance was defined as the antibody titer, and the geometric mean titer: GMT was calculated from the individual values. Binding to IL-23 protein was measured by the ELISA method in the same manner as the antibody titer, using rmIL-23 (Antibodies-online GmbH) as the solid-phased antigen and goat serum for blocking. […] Blood was collected every two weeks from the first day of administration until week 16, and the antibody titer (GMT) and binding to IL-23 of the serum at each time point were measured by the ELISA method (same method as in Example 1; the secondary antibody used was Anti-Monkey IgG (Abcam)). […]

[1] = tested on: IL-17 production when mouse splenocytes were stimulated with rhIL-23; test: Neutralization activity of IgG purified from monkey antiserum: IL-17 production of mouse splenocytes stimulated with rhIL-23; type: cell-based; conditions: 300 μg/mL of IgG derived from monkey antiserum (6 weeks)
Experimental: AJP001 conjugated peptide (SEQ ID NOs: 6-37) was dissolved in physiological saline, mixed with an equal amount of 2% Alhydrogel (invivogen), and this was intradermally administered to BALB/c mice (female, 6-week-old, N=5-6) at 0.5 mg/body 3 times at two-week intervals. Blood was collected before administration and at the time point of 6 weeks after initial administration, and the antibody titer (GMT) to each epitope sequence and binding ability to recombinant human IL-23 protein (rhIL-23) (Peprotech) were measured by the ELISA method (same method as in Example 1). The binding to rhIL-23 was evaluated by a binding ratio to normal serum by calculating the ratio of the absorbance of a well added with normal mouse serum to the absorbance of a well added with antiserum derived from a mouse administered with each AJP001 conjugated peptide (SEQ ID NOs: 6-37). In addition, the neutralization activity of mouse antiserum was evaluated using an action on IL-17 production in rhIL-23 stimulated mouse splenocyte as an index. […]
Then, IgG was purified using Protein G HP spin Trap (GE Healthcare) from the monkey antiserum obtained 6 weeks after the initial administration, and the action on IL-17 production when mouse splenocytes were stimulated with rhIL-23 was evaluated (same method as in Example 5).

[2] = tested on: recombinant human IL-23 protein (rhIL-23); test: Binding of mouse antiserum to rhIL-23, ELISA; conditions: antiserum of BALB/c mice, 1 mg/body 3 times, no adjuvant; 6 weeks
Experimental: AJP001 conjugated peptide (SEQ ID NOs: 6-37) was dissolved in physiological saline, mixed with an equal amount of 2% Alhydrogel (invivogen), and this was intradermally administered to BALB/c mice (female, 6-week-old, N=5-6) at 0.5 mg/body 3 times at two-week intervals. Blood was collected before administration and at the time point of 6 weeks after initial administration, and the antibody titer (GMT) to each epitope sequence and binding ability to recombinant human IL-23 protein (rhIL-23) (Peprotech) were measured by the ELISA method (same method as in Example 1). The binding to rhIL-23 was evaluated by a binding ratio to normal serum by calculating the ratio of the absorbance of a well added with normal mouse serum to the absorbance of a well added with antiserum derived from a mouse administered with each AJP001 conjugated peptide (SEQ ID NOs: 6-37). In addition, the neutralization activity of mouse antiserum was evaluated using an action on IL-17 production in rhIL-23 stimulated mouse splenocyte as an index. The spleen of normal BALB/c mouse (female, 5-week-old, N=3) was triturated using a syringe barrel and a cell strainer and washed with and suspended in HBSS (−). Erythrocytes were then removed using ACK Buffer (Thermo fisher scientific), and splenocytes were isolated. The splenocytes were prepared to 2.5×10^6 cells/mL with 10% FBS/1% penicillin/streptomycin/4 ng/mL rmIL-2-containing RPMI1640 medium (culture medium), and seeded in a 96 well plate at 100 μl/well. The antiserum (final concentration 15-fold) of the mice administered with each AJP001 conjugated peptide and rhIL-23 (final concentration 10 ng/ml) were added to the culture medium, reacted at 37° C. for 2 hr, added at 100 μL/well to a 96-well plate seeded with splenocytes, and cultured for 3 days in a 37° C./5% CO2 incubator. An untreated well and a control well to which normal mouse serum and rhIL-23 were added were provided. IL-17A/F in the culture supernatant was measured using Mouse IL-17A/F ELISA kit (R&D systems), the proportion (%) of IL-17 to normal serum was calculated from the IL-17 concentrations of untreated well (A), control well (B), and well (C) to which antiserum of the mice administered with each AJP001 conjugated peptide was added and according to the following formula, and the neutralization activity was evaluated.
AJP001 conjugated peptide (SEQ ID NO: 6) was dissolved in physiological saline and intradermally administered to BALB/c mice (female, 6-week-old, N=6) at 1 mg/body 3 times at two-week intervals, and blood was collected every 2 weeks until 8 weeks. The antibody titer (GMT) of all the collected sera and the binding ability to rhIL-23 of the serum at 6 weeks were measured by the ELISA method. In FIG. 5, “*” means P<0.05.

## SEQ ID NO 6: AJP001-Ahx-B cell epitope peptide conjugate; epitope SPSQPWQR (human 151-158) (not fully specified (N-terminus); listed as Homo sapiens)
rmIL-23
  binding to rmIL-23: not observed
Epitope peptide
  antibody titer (GMT) over time: increased from 2 weeks after the initial administration and persisted until 16 weeks
[1]
  IL-17 production: suppressed
[2]
  binding ability to rhIL-23: confirmed
